For orientation: IC50 means the point on the concentration scale where inhibition reaches its midpoint. One may read the EC50 as the midpoint of the concentration-response curve. One may read the AC50 as the concentration giving half of the maximal activity seen.

For 2 compounds, IC50, EC50 and AC50 results are on record in ChEMBL document CHEMBL1201862, “PubChem BioAssay data set” (2004).

Holding throughout (type): functional
In assay [1] the target is T1, Alkaline phosphatase, tissue-nonspecific isozyme (Homo sapiens, UniProt P05186).
T1 sequence (P05186 whole entry): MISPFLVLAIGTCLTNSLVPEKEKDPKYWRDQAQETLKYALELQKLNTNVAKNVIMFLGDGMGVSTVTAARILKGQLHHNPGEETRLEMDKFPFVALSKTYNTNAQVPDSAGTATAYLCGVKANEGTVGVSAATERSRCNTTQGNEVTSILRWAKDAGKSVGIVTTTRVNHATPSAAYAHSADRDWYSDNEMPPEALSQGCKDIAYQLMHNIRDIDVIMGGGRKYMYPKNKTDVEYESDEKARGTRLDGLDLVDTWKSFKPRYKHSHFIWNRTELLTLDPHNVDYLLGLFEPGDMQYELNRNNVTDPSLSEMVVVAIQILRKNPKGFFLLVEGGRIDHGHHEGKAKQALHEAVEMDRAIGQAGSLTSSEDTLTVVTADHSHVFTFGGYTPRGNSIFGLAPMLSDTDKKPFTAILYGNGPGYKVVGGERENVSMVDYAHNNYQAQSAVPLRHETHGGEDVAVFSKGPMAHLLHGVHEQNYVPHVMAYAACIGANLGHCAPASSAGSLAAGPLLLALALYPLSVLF
The assay can be described thus: TNAP enzyme inhibition by screening hits, dose response, selectivity assay for mouse IAP inhibitor project, biochemical, human TNAP, uHTS hits (AID 488906).

In assay [2] the target is Intestinal-type alkaline phosphatase (Mus musculus, UniProt P24822). The assay can be described thus: PubChem AID 488785.
Assay [3] concerns the target Intestinal-type alkaline phosphatase (Homo sapiens, UniProt P09923). The assay can be described thus: inhibition of human intestinal alkaline phosphatase – biochemical, dose response (AID 488876).
The target in assay [4] is T2, Protein RecA (Mycobacterium tuberculosis, UniProt P9WHJ3).
T2 sequence (P9WHJ3 whole entry): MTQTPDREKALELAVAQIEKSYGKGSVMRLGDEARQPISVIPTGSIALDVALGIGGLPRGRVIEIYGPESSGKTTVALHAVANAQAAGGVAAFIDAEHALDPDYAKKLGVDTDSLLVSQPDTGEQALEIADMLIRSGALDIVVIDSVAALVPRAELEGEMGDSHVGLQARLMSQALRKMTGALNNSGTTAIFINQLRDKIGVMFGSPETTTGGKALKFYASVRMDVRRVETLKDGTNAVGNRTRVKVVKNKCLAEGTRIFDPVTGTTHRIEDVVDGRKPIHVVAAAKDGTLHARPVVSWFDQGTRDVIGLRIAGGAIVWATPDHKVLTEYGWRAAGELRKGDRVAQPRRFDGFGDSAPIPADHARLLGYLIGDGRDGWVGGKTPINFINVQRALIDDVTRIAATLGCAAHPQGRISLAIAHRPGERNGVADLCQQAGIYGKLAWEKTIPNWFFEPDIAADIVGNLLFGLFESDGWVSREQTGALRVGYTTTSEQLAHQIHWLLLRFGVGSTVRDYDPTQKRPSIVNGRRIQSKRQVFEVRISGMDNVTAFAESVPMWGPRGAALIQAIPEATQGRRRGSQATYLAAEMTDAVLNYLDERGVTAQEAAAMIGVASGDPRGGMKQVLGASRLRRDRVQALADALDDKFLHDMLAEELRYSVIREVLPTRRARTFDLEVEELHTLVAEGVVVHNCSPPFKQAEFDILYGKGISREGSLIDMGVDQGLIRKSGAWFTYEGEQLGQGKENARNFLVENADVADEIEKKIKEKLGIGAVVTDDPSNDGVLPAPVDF
The assay can be described thus: Fluorescence Cell-Free Homogeneous Dose Retest to Identify Inhibitors of RecA-Intein Splicing Activity. [Related pubchem assays (depositor defined):AID2097, AID2223, AID489010, AID492950].

The target of assay [5] is T3, Tyrosine-protein phosphatase non-receptor type 22 (Homo sapiens, UniProt Q9Y2R2).
Assay [6] has as its target T4, Replicative DNA helicase DnaB (Mycobacterium tuberculosis, UniProt P9WMR3).
T4 sequence (P9WMR3 whole entry): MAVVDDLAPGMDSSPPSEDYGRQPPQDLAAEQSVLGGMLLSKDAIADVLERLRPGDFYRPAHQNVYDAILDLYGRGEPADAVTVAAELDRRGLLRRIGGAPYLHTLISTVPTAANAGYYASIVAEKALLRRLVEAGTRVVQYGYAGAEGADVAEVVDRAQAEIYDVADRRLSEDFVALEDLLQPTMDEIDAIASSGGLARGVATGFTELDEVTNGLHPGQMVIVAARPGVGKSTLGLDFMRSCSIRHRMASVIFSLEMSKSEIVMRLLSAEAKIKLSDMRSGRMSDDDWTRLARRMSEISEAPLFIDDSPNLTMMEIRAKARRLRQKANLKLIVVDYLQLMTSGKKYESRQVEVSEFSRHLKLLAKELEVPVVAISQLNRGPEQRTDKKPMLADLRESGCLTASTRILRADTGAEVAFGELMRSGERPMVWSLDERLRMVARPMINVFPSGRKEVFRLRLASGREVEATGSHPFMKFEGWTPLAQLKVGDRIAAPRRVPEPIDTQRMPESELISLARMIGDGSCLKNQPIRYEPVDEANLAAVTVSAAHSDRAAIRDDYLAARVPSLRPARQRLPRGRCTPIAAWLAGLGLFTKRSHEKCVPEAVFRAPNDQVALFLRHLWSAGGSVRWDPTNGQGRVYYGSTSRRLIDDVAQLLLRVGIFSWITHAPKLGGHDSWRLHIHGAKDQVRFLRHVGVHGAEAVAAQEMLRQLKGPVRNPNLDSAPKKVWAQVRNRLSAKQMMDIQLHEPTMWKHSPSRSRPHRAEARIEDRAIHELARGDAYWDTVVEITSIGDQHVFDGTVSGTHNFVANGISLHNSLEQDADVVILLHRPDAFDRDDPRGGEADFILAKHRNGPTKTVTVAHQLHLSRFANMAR
The assay can be described thus: DnaB intein splicing inhibitors, dose response, biochemical, cell-free fluorescence (AID 449749).

Assay [7] has as its target Prothrombin (Homo sapiens, UniProt P00734). The assay can be described thus: Thrombin 1536 HTS Dose Response Confirmation. [Related pubchem assays: 1046 (Thrombin 1536 HTS; hits were confirmed in this assay)].
Assay [8] addresses T3, Tyrosine-protein phosphatase non-receptor type 22. The source holds these as a separate data set.
The target of assay [9] is Tyrosine-protein phosphatase non-receptor type 7 (Homo sapiens, UniProt P35236).

SMILES strings stand for the structures. Active and inactive are the calls of the source. Cut-off read from the data, not from the text of the source, for most assays here: actives have a measured IC50 and inactives only a lower limit.

T3 sequence (Q9Y2R2 whole entry): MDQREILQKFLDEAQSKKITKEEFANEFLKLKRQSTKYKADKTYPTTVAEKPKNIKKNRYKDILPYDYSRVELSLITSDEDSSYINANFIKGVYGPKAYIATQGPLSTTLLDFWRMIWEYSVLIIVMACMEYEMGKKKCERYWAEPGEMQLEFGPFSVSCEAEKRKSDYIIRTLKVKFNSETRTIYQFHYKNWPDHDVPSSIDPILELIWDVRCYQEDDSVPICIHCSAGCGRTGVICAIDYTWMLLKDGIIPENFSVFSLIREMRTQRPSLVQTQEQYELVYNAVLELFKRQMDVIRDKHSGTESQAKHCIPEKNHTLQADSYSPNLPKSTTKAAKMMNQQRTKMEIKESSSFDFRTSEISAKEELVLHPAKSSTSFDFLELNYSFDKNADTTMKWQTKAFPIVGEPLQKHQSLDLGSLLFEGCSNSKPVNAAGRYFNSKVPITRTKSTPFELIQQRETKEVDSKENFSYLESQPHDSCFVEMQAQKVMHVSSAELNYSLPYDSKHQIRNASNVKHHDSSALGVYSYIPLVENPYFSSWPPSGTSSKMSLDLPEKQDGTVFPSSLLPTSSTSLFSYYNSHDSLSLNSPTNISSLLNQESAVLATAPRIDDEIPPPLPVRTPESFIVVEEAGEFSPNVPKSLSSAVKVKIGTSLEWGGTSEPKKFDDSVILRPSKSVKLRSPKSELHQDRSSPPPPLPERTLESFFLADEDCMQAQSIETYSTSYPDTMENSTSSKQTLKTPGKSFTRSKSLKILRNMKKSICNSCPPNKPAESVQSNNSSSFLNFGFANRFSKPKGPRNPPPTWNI
Chain of Intestinal-type alkaline phosphatase (Homo sapiens, UniProt P09923) (P09923 whole entry): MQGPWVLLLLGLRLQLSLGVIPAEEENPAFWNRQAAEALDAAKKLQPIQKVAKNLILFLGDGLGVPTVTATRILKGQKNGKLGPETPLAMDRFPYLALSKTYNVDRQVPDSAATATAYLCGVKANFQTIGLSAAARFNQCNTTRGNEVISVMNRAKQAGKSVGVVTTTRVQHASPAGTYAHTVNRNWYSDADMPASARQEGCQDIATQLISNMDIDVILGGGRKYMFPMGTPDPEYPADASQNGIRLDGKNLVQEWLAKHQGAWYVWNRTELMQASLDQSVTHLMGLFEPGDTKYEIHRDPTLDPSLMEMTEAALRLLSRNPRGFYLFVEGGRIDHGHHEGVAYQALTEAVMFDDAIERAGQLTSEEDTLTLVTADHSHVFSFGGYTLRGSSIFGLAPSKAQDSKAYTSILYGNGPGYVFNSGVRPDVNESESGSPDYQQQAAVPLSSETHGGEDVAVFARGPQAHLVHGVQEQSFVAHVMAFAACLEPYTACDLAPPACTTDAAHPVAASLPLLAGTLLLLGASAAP
Chain of Intestinal-type alkaline phosphatase (Mus musculus, UniProt P24822) (P24822 whole entry): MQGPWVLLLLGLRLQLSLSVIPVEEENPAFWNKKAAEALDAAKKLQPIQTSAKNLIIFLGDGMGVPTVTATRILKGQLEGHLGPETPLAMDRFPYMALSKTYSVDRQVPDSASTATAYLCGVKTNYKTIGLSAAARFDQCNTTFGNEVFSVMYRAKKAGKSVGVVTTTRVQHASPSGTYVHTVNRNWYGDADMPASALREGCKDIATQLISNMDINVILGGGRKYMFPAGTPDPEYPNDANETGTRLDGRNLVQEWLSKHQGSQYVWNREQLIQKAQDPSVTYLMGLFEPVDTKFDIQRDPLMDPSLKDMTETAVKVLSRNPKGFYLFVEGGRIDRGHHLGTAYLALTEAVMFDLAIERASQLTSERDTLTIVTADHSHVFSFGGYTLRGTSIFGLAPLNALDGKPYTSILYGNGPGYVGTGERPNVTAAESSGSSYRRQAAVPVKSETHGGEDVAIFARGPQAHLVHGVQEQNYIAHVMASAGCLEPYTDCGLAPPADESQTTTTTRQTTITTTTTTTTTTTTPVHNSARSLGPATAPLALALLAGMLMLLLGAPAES
Chain of Tyrosine-protein phosphatase non-receptor type 7 (P35236 whole entry): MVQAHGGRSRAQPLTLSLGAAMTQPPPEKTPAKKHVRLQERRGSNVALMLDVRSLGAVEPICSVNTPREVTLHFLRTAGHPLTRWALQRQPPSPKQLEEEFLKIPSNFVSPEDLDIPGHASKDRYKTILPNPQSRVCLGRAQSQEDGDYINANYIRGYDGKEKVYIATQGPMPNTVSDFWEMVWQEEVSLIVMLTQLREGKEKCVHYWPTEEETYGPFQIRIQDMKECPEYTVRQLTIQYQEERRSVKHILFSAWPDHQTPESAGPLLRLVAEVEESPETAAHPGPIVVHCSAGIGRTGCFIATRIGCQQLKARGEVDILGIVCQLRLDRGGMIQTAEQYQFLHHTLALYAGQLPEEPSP

For `S=C(NCc1ccccc1)NC1CCSc2ccccc21` (centres undefined), the IC50 in assay [1] was 45.5 µM (active); in assay [2], 3.3 µM (active); in [3] it was 60.7 µM (active).

Turning to `CSc1nc(-c2ccc(Cl)cc2)nn1C(=O)c1ccco1`, in [4], the EC50 is > 380 µM (inactive). Besides, the IC50 in assay [5] is > 79.4 µM (inactive); in assay [7], 2.31 µM (active); in assay [8], > 79.4 µM (inactive); in [9] it was > 79.4 µM (inactive). In assay [6], the AC50 is 0.387 µM (active).
